Patent US7981859B2, “Glycopeptide composition with improved antibiotic activity” (Xellia Pharmaceuticals APS, priority 2003, dated 2011)

Legend:
[1] = test system: Staphylococcus aureus ATCC 6538; experiment: Microbiological potency by agar diffusion; format: cell-based
Description: Accordingly, in one embodiment a Teicoplanin composition as described herein, has a higher antibiotic activity than a corresponding Teicoplanin composition that has a %(mg TA3)/(mg TA3+TA2) of 6.5%, where the antibiotic activity is measured by a microbiological agar diffusion assay using Staphylococcus aureus ATCC 6538 as test strain and the measured potential potency (IU per mg TA2+TA3/g composition) is used to calculate the antibiotic activity.
Procedure for the Determination of Microbiological Potency by Agar Diffusion
(§1) Potency of Teicoplanin TA2, TA3-1 alone or in combination was determined by agar diffusion assays. Furthermore, the antimicrobial effect of pure and spiked products was investigated through the determination of the minimum inhibitory concentration (MIC) by a modified “MIC” test in micro titer trays.
The potency test is carried out according to the assay described below. […]
The results are analyzed by reading the zone diameters carefully with a 10× magnification and a precision of 0.1 mm. […]
(§2) Potency of teicoplanin TA2, TA3-1 alone or in combinations was determined by agar diffusion assays as described in example 1. Modified MIC-values in microtitre trays were determined as described in example 1.

S. aureus ATCC 6538 = experiment: Modified "MIC" test in micro titer trays (liquid medium); format: cell-based, Staphylococcus aureus
Description: as §1
Pure TA3-1, (Teicoplanin Material B 96% TA2-X, 4% TA3-1) and mixtures thereof were used. The test strain used was S. aureus ATCC 6538 in final concentrations of 5×10^5/ml and 5×10^4/ml respectively. The test was carried out in micro titer trays as a modification of an ordinary MIC test. Instead of using two-fold dilutions, 0.40-1.20 μg/ml with 0.20 μl divisions and 1.0-4.0 μl/ml with 1.0 μl divisions was used. The trays were incubated at 37° C. The wells were examined after 24 hours and any visible growth was noted.
In order to strengthen the evidence some experiments were performed with a modified antimicrobial analysis of Teicoplanin, spiked with different amounts of TA3-1. It was carried out in liquid medium in contrast to the agar diffusion tests and determined the MIC values. The results are summarized in Table 4, (“MIC”-values of Teicoplanin and/or TA3-1 on S. aureus ATCC6538).
as §2

Structure (SMILES): CC(=O)N[C@H]1[C@H](O[C@@H]2c3ccc(c(Cl)c3)Oc3cc4cc(c3O)Oc3ccc(cc3Cl)C[C@H]3NC(=O)[C@H](N)c5ccc(O)c(c5)Oc5cc(O)cc(c5)[C@H](NC3=O)C(=O)N[C@H]4C(=O)N[C@H]3C(=O)N[C@@H]2C(=O)N[C@H](C(=O)O)c2cc(O)cc(O[C@H]4O[C@H](CO)[C@@H](O)[C@H](O)[C@@H]4O)c2-c2cc3ccc2O)O[C@H](CO)[C@@H](O)[C@@H]1O [TA3-1, Teicoplanin A3-1]
- Potency IU/mg powder ([1]; Example 1, agar diffusion, 2-point assay, potency of the powder as such): 570 IU/mg powder
- potency by agar diffusion (IU/mg powder) compared with Targocid alone ([1]; Example 2, FIG. 5, Targocid/TA3-1 solutions mixed at different mass TA3-1%): much lower potency
- MIC value relative to Targocid alone (times higher) (S. aureus ATCC 6538; Example 2, FIG. 6, MIC in μg powder/ml solution): 4-5 times
- MIC (μg/ml) 5 × 10^4/ml S.aureus (S. aureus ATCC 6538; inoculum 5 × 10^4/ml, 37° C., read after 24 hours, lowest concentration without visible growth): 2–3 μg/ml
- MIC (μg/ml) 5 × 10^5/ml S.aureus (S. aureus ATCC 6538; inoculum 5 × 10^5/ml, 37° C., read after 24 hours, lowest concentration without visible growth): 2–3 μg/ml
